Laboratory results published in patent publication US6800653B2, “Epothilone derivatives” (priority 2001, dated 2004).
Like-named read-outs stand apart in the source and are kept apart here.

Tests used:
calf brain tubulin = test: In vitro tubulin polymerization; assay type: biochemical; settings: interpolated concentration inducing an initial slope of 0.01 OD/minute; 1.0 mg/ml microtubule protein, 37°; read-out: Tubulin assay EC0.01
Procedure: In vitro Tubulin Polymerization
Twice cycled (2×) calf brain tubulin was prepared following the procedure of Williams and Lee (see Williams, R. C., Jr., and Lee, J. C. Preparation of tubulin from brain. Methods in Enzymology 85, Pt. D: 376-385, 1982) and stored in liquid nitrogen before use. Quantification of tubulin polymerization potency is accomplished following a modified procedure of Swindell, et al., (see Swindell, C. S., Krauss, N. E., Horwitz, S. B., and Ringel, L. Biologically active taxol analogues with deleted A-ring side chain substituents and variable C-2′ configurations. J. Med. Chem. 34: 1176-1184, 1991). These modifications, in part, result in the expression of tubulin polymerization potency as an effective concentration for any given compound. For this method, different concentrations of compound in polymerization buffer (0.1M MES, 1 mM EGTA, 0.5 mM MgCl2, pH 6.6) are added to tubulin in polymerization buffer at 37° in microcuvette wells of a Beckman (Beckman Instruments) Model DU 7400 UV spectrophotometer. A final microtubule protein concentration of 1.0 mg/ml and compound concentration of generally 2.5, 5.0, and 10 μM are used. Initial slopes of OD change measured every 10 seconds were calculated by the program accompanying the instrument after initial and final times of the linear region encompassing at least 3 time points were manually defined. Under these conditions linear variances were generally <10^−6, slopes ranged from 0.03 to 0.002 absorbance unit/minute, and maximum absorbance was 0.15 absorbance units. Effective concentration (EC0.01) is defined as the interpolated concentration capable of inducing an initial slope of 0.01 OD/minute rate and is calculated using the formula: EC0.01=concentration/slope. EC0.01 values are expressed as the mean with standard deviation obtained from 3 different concentrations. EC0.01 values for the compounds in this invention fall in the range 0.01-1000 μM.

[1] = tested on: HCT-116 human colon carcinoma cells; test: Cytotoxicity (in vitro) by MTS assay; assay type: cell-based; settings: read-out: HTC-116 assay IC50
Procedure: Cytoxicity was assessed in HCT-116 human colon carcinoma cells by MTS (3-(4,5-dimethylthiazol-2-yl)-5-(3-carboxymethoxyphenyl)-2-(4-sulphenyl)-2H-tetrazolium, inner salt) assay as reported in T. L. Riss, et. al., “Comparison of MTT, XTT, and a novel tetrazolium compound MTS for in vitro proliferation and chemosensitivity assays.,” Mol. Biol. Cell 3 (Suppl.): 184a, 1992. Cells were plated at 4,000 cell/well in 96 well microtiter plates and 24 hours later drugs were added and serial diluted. The cells were incubated at 37° form 72 hours at which time the tetrazolium dye, MTS at 333 μg/ml (final concentration), in combination with the electron coupling agent phenazine methosulfate at 25 μM (final concentration) was added. A dehydrogenase enzyme in live cells reduces the MTS to a form that absorbs light at […] which can be quantitated spectrophotometrically. The greater the absorbance the greater the number of live cells. The results are expressed as an IC50, which is the drug concentration required to inhibit cell proliferation (i.e. absorbance at 450 nm) to 50% of that of untreated control cells.

[2] = HCT-116, 72 hours incubation, MTS

Row | Structure (SMILES) | EC50 (calf brain tubulin) [µM] | IC50 [1, 2] [µM] | IC50 ([1]; HCT-116, 72 h) [µM]
1 | C/C(=C\c1csc(C)n1)C1CC2[C@@H](CCC[C@H](C)[C@H](O)[C@@H](C)C(=O)C(C)(C)[C@@H](O)CC(=O)O1)[N@@]2S(=O)(=O)N1CCOCC1 (relative stereo) [Example 19, [1S-[1R*,3R*(E),7R*,10S,11R*,12R*,16S*]]-17-Morpholinosulfonyl-7,11-dihydroxy-8,8,10,12-tetramethyl-3-[1-methyl-2-(2-methyl-4-thiazolyl)ethenyl]-4-oxa-17-azabicyclo[14.1.0]heptadecane-5,9-dione.] | 460 | 0.16 | –
2 | CCCS(=O)(=O)N1C2CCCC(C)C(O)C(C)C(=O)C(C)(C)C(O)CC(=O)OC(C(C)=Cc3csc(C)n3)CC21 [Example 25, [1S-[1R*,3R*(E),7R*,10S,11R*,12R*,16S*]]-17-N-n-Propylsulfonyl-7,11-dihydroxy-8,8,10,12-tetramethyl-3-[1-methyl-2-(2-methyl-4-thiazolyl)ethenyl]-4-oxa-17-azabicyclo[14.1.0]heptadecane-5,9-dione.] | – | 0.094 | –
3 | CC(=Cc1csc(C)n1)C1CC2C(CCCC(C)C(O)C(C)C(=O)C(C)(C)C(O)CC(=O)O1)N2S(=O)(=O)c1cccs1 (stereo not drawn) [Example 26, [1S-[1R*,3R*(E),7R*,10S*,11R*,12R*,16S*]]-17-(2-thienyl)sulfonyl-7,11-dihydroxy-8,8,10,12-tetramethyl-3-[1-methyl-2-(2-methyl-4-thiazolyl)ethenyl]-4-oxa-17-azabicyclo[14.1.0]heptadecane-5,9-dione.] | – | 0.03 | –
4 | C/C(=C\c1csc(C)n1)C1CC2[C@@H](CCC[C@H](C)[C@H](O)[C@@H](C)C(=O)C(C)(C)[C@@H](O)CC(=O)O1)N2C(=O)c1cccs1 (relative stereo) [Example 23, [1S-[1R*,3R*(E),7R*,10S*,11R*,12R*,16S*]]-17-(2-Thienyl)carbonyl-7,11-dihydroxy-8,8,10,12-tetramethyl-3-[1-methyl-2-(2-methyl-4-thiazolyl)ethenyl]-4-oxa-17-azabicyclo[14.1.0]heptadecane-5,9-dione.] | 1.2 | 0.0016 | –
5 | C/C(=C\c1csc(C)n1)C1CC2[C@@H](CCC[C@H](C)[C@H](O)[C@@H](C)C(=O)C(C)(C)[C@@H](O)CC(=O)O1)[N@@]2C (relative stereo) [Example 8, [1S-[1R*,3R*(E),7R*,10S*,11R*,12R*,16S*]]-7,11-Dihydroxy-8,8,10,12,17-pentamethyl-3-[1-methyl-2-(2-methyl-4-thiazolyl)ethenyl]-4-oxa-17-azabicyclo[14.1.0]heptadecane-5,9-dione] | 2.6 | – | 0.00013
6 | CCOC(=O)N1C2CC(/C(C)=C/c3csc(C)n3)OC(=O)C[C@H](O)C(C)(C)C(=O)[C@H](C)[C@@H](O)[C@@H](C)CCC[C@H]21 (relative stereo) [Example 24] | 1.2 | 0.0077 | –
7 | C/C(=C\c1csc(C)n1)[C@@H]1C[C@H]2C(CCCC(C)[C@H](O)[C@@H](C)C(=O)C(C)(C)[C@@H](O)CC(=O)O1)[N@]2S(N)(=O)=O (relative stereo) [Example 16, [1S-[1R*,3R*(E),7R*,10S,11R*,12R*,16S*]]-17-Sulfonylurea-7,11-dihydroxy-8,8,10,12-tetramethyl-3-[1-methyl-2-(2-methyl-4-thiazolyl)ethenyl]-4-oxa-17-azabicyclo[14.1.0]heptadecane-5,9-dione.] | 28 | 0.036 | –
8 | C/C(=C\c1csc(C)n1)C1CC2[C@@H](CCC[C@H](C)[C@H](O)[C@@H](C)C(=O)C(C)(C)[C@@H](O)CC(=O)O1)N2C(=O)CC(C)C (relative stereo) [Example 5, [1S-[1R*,3R*(E),7R*,10S*,11R*,12R*,16S*]]-7,11-Dihydroxy-8,8,10,12-tetramethyl-3-[1-methyl-2-(2-methyl-4-thiazolyl)ethenyl]-17-(3-methyl-1-oxobutyl)-4-oxa-17-azabicyclo[14.1.0]heptadecane-5,9-dione.] | 3.5 | 0.041 | –
9 | C/C(=C\c1csc(C)n1)[C@@H]1C[C@@H]2NC2CCCC(C)[C@H](O)[C@@H](C)C(=O)C(C)(C)[C@@H](O)CC(=O)O1 (relative stereo) [Example 1, [1S-[1R*,3R*(E),7R*,10S*,11R*,12R*,16S*]]-7,11-Dihydroxy-8,8,10,12-tetramethyl-3-[1-methyl-2-(2-methyl-4-thiazolyl)ethenyl]-4-oxa-17-azabicyclo[14.1.0]heptadecane-5,9-dione.] | 14 | – | 0.0027
10 | CC(=Cc1csc(C)n1)C1CC2OC2CCCC(C)C(O)C(C)C(=O)C(C)(C)C(O)CC(=O)O1 (stereo not shown) [Epothilone A, reference compound] | – | 0.0044 | –
11 | CCNC(=O)N1C2CC(/C(C)=C/c3csc(C)n3)OC(=O)C[C@H](O)C(C)(C)C(=O)[C@H](C)[C@@H](O)[C@@H](C)CCC[C@H]21 (relative stereo) [Example 7, 1S-[1R*,3R*(E),7R*,10S,11R*,12R*,16S*]]-N-Ethyl-7,11-dihydroxy-8,8,10,12-tetramethyl-3-[1-methyl-2-(2-methyl-4-thiazolyl)ethenyl]-4-oxa-17-azabicyclo[14.1.0]heptadecane-5,9-dione-17-carboxamide.] | > 1000 | – | –
12 | C/C(=C\c1csc(C)n1)C1CC2[C@@H](CCC[C@H](C)[C@H](O)[C@@H](C)C(=O)C(C)(C)[C@@H](O)CC(=O)O1)N2C(=O)c1ccccc1 (relative stereo) [Example 22, 1S-[1R*,3R*(E),7R*,10S,11R*,12R*,16S*]]-17-Phenylcarbonyl-7,11-dihydroxy-8,8,10,12-tetramethyl-3-[1-methyl-2-(2-methyl-4-thiazolyl)ethenyl]-4-oxa-17-azabicyclo[14.1.0]heptadecane-5,9-dione.] | 1.4 | 0.003 | –
13 | C/C(=C\c1csc(C)n1)[C@@H]1C[C@H]2C(CCCC(C)[C@H](O)[C@@H](C)C(=O)C(C)(C)[C@@H](O)CC(=O)O1)N2C(=O)CN(C)C (relative stereo) [Example 4, [1S-[1R*,3R*(E),7R*,10S*,11R*,12R*,16S*]]-17-[Dimethylamino)acetyl]-7,11-dihydroxy-8,8,10,12-tetramethyl-3-[1-methyl-2(2-methyl-4-thiazolyl)ethenyl]-4-oxa-17-azabicyclo[14.1.0]heptadecane-5,9-dione.] | > 1000 | – | –
14 | C/C(=C\c1csc(C)n1)C1CC2[C@@H](CCC[C@H](C)[C@H](O)[C@@H](C)C(=O)C(C)(C)[C@@H](O)CC(=O)O1)[N@@]2S(=O)(=O)N(C)C (relative stereo) [Example 18, [1S-[1R*,3R*(E),7R*,10S*,11R*,12R*,16S*]]-7,11-Dihydroxy-N,N,8,8,10,12-hexamethyl-3-[1-methyl-2-(2-methyl-4-thiazolyl)ethenyl]-5,9-dioxo-4-oxa-17-azabicyclo[14.1.0]heptadecane-17-sulfonamide.] | 1 | 0.0002 | –
15 | C/C(=C\c1csc(C)n1)C1CC2[C@@H](CCC[C@H](C)[C@H](O)[C@@H](C)C(=O)C(C)(C)[C@@H](O)CC(=O)O1)[N@@]2S(C)(=O)=O (relative stereo) [Example 6, [1S-[1R*,3R*(E), 7R*,10S,11R*,12R*,16S*]]-17-N-Methylsulfonyl-7,11-dihydroxy-8,8,10,12-tetramethyl-3-[1-methyl-2-(2-methyl-4-thiazolyl)ethenyl]-4-oxa-17-azabicyclo[14.1.0]heptadecane-5,9-dione.] | 14 | 0.0021 | –
16 | CC(=O)N1C2CC(/C(C)=C/c3csc(C)n3)OC(=O)C[C@H](O)C(C)(C)C(=O)[C@H](C)[C@@H](O)[C@@H](C)CCC[C@H]21 (relative stereo) [Example 21, [1S-[1R*,3R*(E),7R*,10S,11R*,12R*,16S*]]-17-Acetyl-7,11-dihydroxy-8,8,10,12-tetramethyl-3-[1-methyl-2-(2-methyl-4-thiazolyl)ethenyl]-4-oxa-17-azabicyclo[14.1.0]heptadecane-5,9-dione.] | 1.2 | 0.0009 | –
17 | CC(=Cc1csc(C)n1)C1CC2OC2(C)CCCC(C)C(O)C(C)C(=O)C(C)(C)C(O)CC(=O)O1 (stereo not shown) [Epothilone B, reference compound] | – | – | 0.0008
